Reference: patent US20240228555A9, “ANTIMICROBIAL PEPTIDOMIMETICS” (Basilea Pharmaceutica International AG, Allschwil, priority 2020, published 2024)
Where a SMILES comes first, the peptide text is derived from it.

What was measured:
[1] = tested on: Escherichia coli ATCC 25922; conditions: ATCC 25922
Method: (§1) Lyophilized peptides were weighed on a Microbalance (Mettler MT5) and dissolved in sterile water to a final concentration of 1 mg/mL. Stock solutions were kept at +4° C., light protected.
(§2) Colonies of the microorganisms were diluted in saline (0.85%, NaCl) and adjusted using a McFarland reader (bioMérieux SA, Marcy-l'Etoile, France) to 0.5 McFarland standard. Subsequently, the bacterial suspension was diluted in Mueller-Hinton II (MHII, cation adjusted) broth to give approximately 5×10^5 colony forming units (CFU/mL).
(§3) 10^6 colony forming units (CFU)/mL. Aliquots (90 μl) of inoculate were added to 10 μl of water+P-80 (Polysorbate 80, 0.002% final concentration) containing the peptide in serial two-fold dilutions at 10 fold final concentration. The following microorganisms were used to determine antibiotic selectivity of the peptides: Escherichia coli ATCC 25922, Escherichia coli MCR-1 Af 45 and Klebsiella pneumoniae SSI3010.

[2] = tested on: Escherichia coli MCR-1 Af 45; conditions: Mueller-Hinton broth II, no visible growth after 18-20 hours at 35° C.
Method: as §1, §2, §3

[3] = tested on: Klebsiella pneumoniae SSI3010; conditions: SSI3010
Method: as §1, §2, §3

[4] = tested on: human red blood cells (hRBC); format: cell-based; conditions: red cells of human, 1 h, 0.2 g/L
Method: as §1
The peptides were tested for their hemolytic activity against human red blood cells (hRBC). Fresh hRBC were washed three times with phosphate buffered saline (PBS) and centrifuged for 5 min at 3000×g. Compounds (200 μg/mL) were incubated with 20% hRBC (v/v) for 1 h at 37° C. and shaking at 300 rpm. A value of 0% and 100% cell lyses, respectively, was determined by incubation of hRBC in the presence of PBS and 2.5% Triton X-100 in H2O, respectively. The samples were centrifuged, the supernatants were 8-fold diluted in PBS buffer and the optical densities (OD) were measured at 540 nm. The 100% lyses value (OD540H2O) gave an OD540 of approximately 0.5-1.0.
Percent hemolysis was calculated as follows: (OD540peptide/OD540H2O)×100%.

Row | SMILES | Escherichia coli ATCC 25922 MIC [1] [mg/L] | Escherichia coli MCR-1 Af 45 MIC [2] [mg/L] | Klebsiella pneumoniae SSI3010 MIC [3] [mg/L] | Hemolysis at 0.2 g/L [4] [%]
1 | CC[C@H](C)[C@H](NC(=O)[C@@H]1CC(F)(F)CN1C(=O)[C@@H](N)C(C)C)C(=O)N[C@H](C(=O)N[C@@H](Cc1ccc(O)cc1)C(=O)N[C@@H]1C(=O)N[C@@H](CC(N)=O)C(=O)N[C@@H](CCCNC(=N)N)C(=O)N[C@@H](CCN)C(=O)N[C@@H]([C@@H](C)O)C(=O)N[C@H](CCN)C(=O)N[C@@H](CCCCN)C(=O)N[C@H](C(=O)N[C@@H](CCN)C(=O)N[C@@H](CCCNC(=N)N)C(=O)N[C@@H](Cc2ccc(O)cc2)C(=O)O)CSSC1(C)C)[C@@H](C)O [Example 127, Val-Pro(4,4F2)-Ile-Thr-Tyr-Pen-Asn-Arg-Dab-Thr-^DDab-Lys-Cys-Dab-Arg-Tyr] (HELM PEPTIDE1{V.[O=C([C@@H]1CC(F)(F)CN1[*:1])[*:2]].I.T.Y.[Pen].N.R.[Dab].T.[NCC[C@@H](N[*:1])C(=O)[*:2]].K.C.[Dab].R.Y}$PEPTIDE1,PEPTIDE1,6:R3-13:R3$$$V2.0) | 0.25 | 0.125 | 0.5 | <1
2 | CC[C@H](C)[C@H](NC(=O)[C@@H]1C[C@@H](O)CN1C(=O)[C@@H](N)C(C)C)C(=O)N[C@H](C(=O)N[C@@H](Cc1ccc(O)cc1)C(=O)N[C@@H]1C(=O)N[C@@H](CC(N)=O)C(=O)N[C@@H](CCCNC(=N)N)C(=O)N[C@@H](CCN)C(=O)N[C@@H](CO)C(=O)N[C@H](CCN)C(=O)N[C@@H](CCCCN)C(=O)N[C@H](C(=O)N[C@@H](CCN)C(=O)N[C@@H](CCN)C(=O)N[C@@H](Cc2ccc(O)cc2)C(=O)O)CSSC1(C)C)[C@@H](C)O [Example 77, Val-Hyp-Ile-Thr-Tyr-Pen-Asn-Arg-Dab-Ser-^DDab-Lys-Cys-Dab-Dab-Tyr] (HELM PEPTIDE1{V.[Hyp].I.T.Y.[Pen].N.R.[Dab].S.[NCC[C@@H](N[*:1])C(=O)[*:2]].K.C.[Dab].[Dab].Y}$PEPTIDE1,PEPTIDE1,6:R3-13:R3$$$V2.0) | 0.0625 | 0.0625 | 0.125 | <1
3 | CC[C@H](C)[C@H](NC(=O)[C@@H]1C[C@@H](O)CN1C(=O)[C@@H](N)C(C)C)C(=O)N[C@@H](CCCCNC)C(=O)N[C@@H](Cc1ccc(O)cc1)C(=O)N[C@@H]1C(=O)N[C@@H](CC(N)=O)C(=O)N[C@@H](CCCNC(=N)N)C(=O)N[C@@H](CCN)C(=O)N[C@@H]([C@@H](C)O)C(=O)N[C@H](CCN)C(=O)N[C@@H](CCCCN)C(=O)N[C@H](C(=O)N[C@@H](CCN)C(=O)N[C@@H](CCCNC(=N)N)C(=O)N[C@@H](Cc2ccc(O)cc2)C(=O)O)CSSC1(C)C [Example 125, Val-Hyp-Ile-Lys(Me)-Tyr-Pen-Asn-Arg-Dab-Thr-^DDab-Lys-Cys-Dab-Arg-Tyr] (HELM PEPTIDE1{V.[Hyp].I.[CNCCCC[C@H](N[*:1])C(=O)[*:2]].Y.[Pen].N.R.[Dab].T.[NCC[C@@H](N[*:1])C(=O)[*:2]].K.C.[Dab].R.Y}$PEPTIDE1,PEPTIDE1,6:R3-13:R3$$$V2.0) | 0.125 | 0.03125 | 0.5 | <1
